Data on 13 molecules can be found in ChEMBL document CHEMBL5550168, “Structure-based design of multitargeting ChEs-MAO B inhibitors based on phenyl ring bioisosteres: AChE/BChE selectivity switch and drug-like characterization” (Eur J Med Chem, 2024).

Series [1] is described as follows: in vitro. As to conditions: mouse.
Series [2] in a line: Chromatographic hydrophobicity index of compound at pH 10.5 by reversed-phase HPLC analysis. The format is ADME.
The nature of series [3]: Chromatographic hydrophobicity index of compound at pH 2.0 by reversed-phase HPLC analysis. The format is ADME.
Series [4] is described as follows: Metabolic stability in mouse liver microsomes assessed as intrinsic clearance at 0.5 uM measured upto 30 mins in presence of NADPH by LC-MS/MS analysis. The format is ADME, Microsome. As to conditions: read-out: CLH.
A short description of series [5]: Chromatographic hydrophobicity index of compound at pH 7.4 by reversed-phase HPLC analysis. The format is ADME.
Series [6] is described as follows: Metabolic stability in mouse liver microsomes assessed as half life at 0.5 uM measured upto 30 mins in presence of NADPH by LC-MS/MS analysis. The format is ADME, Microsome.
Series [7] can be described thus: Permeability of the compound assessed as membrane retention. The format is ADME.

As a reminder, the Papp is the rate of passage across a membrane or cell layer, normalised by area and donor concentration. As a reminder, the half-life is how long it takes for the measured level to halve. In series [1], `CN(CCc1ccsc1)Cc1ccc(COc2ccc3c(CO)cc(=O)oc3c2)cc1` showed a Papp at 2 h, 20 µM of 5.9 ×10⁻⁶ cm/s. For the same molecule, the values for the CHI in series [2], in series [3] and in series [5] were 95.2, 54.3 and 85.5, respectively. Also, the microsomal CLint at 0.5 µM in series [4] is 103 µL/min/mg. In addition, in series [6], the half-life at 0.5 µM was found to be 13.5 min.
As for `CN(Cc1ccc(COc2ccc3c(CO)cc(=O)oc3c2)cc1)Cc1cscn1`, the CHI turned out to be 69.9 in series [2], 42.2 in series [3] and 68.3 in series [5].
Regarding `CN(Cc1ccc(COc2ccc3c(CO)cc(=O)oc3c2)cc1)Cc1ncc[nH]1`, in series [7], the R% is listed as ~ 50%. The CHI in series [2] came to 50.7; in series [3] it was 34.6; in series [5] it was 51.6.
Regarding `CN(CCc1cccs1)Cc1ccc(COc2ccc3c(CO)cc(=O)oc3c2)cc1`, the CHI is 97.8 in series [2], 53.7 in series [3] and 92.9 in series [5].
Regarding `CN(Cc1ccncc1)Cc1ccc(COc2ccc3c(CO)cc(=O)oc3c2)cc1`, the CHI in series [2] is recorded as 72; in series [3] it was 32.3.
For `CN(Cc1ccc(COc2ccc3c(CO)cc(=O)oc3c2)cc1)Cc1ccco1`, the CHI was found to be 85.1 in series [2], 47.2 in series [3] and 83.5 in series [5].
Regarding `CN(Cc1ccc(COc2ccc3c(CO)cc(=O)oc3c2)cc1)Cc1cccs1`, the CHI in series [2] is given as 98; in series [3], 50.4; in series [5] it was 96.5.
On the same counts, the results for `CN(Cc1ccc(COc2ccc3c(CO)cc(=O)oc3c2)cc1)Cc1nccs1` are 76.1, 42.7 and 76.7.
As for `CN(CCc1cccnc1)Cc1ccc(COc2ccc3c(CO)cc(=O)oc3c2)cc1`, the CHI stood at 69.3 in series [2], 29.9 in series [3] and 65.3 in series [5]. The microsomal CLint at 0.5 µM in series [4] stood at 233 µL/min/mg. The half-life at 0.5 µM in series [6] came to 5.97 min.
As for `CN(Cc1ccc(COc2ccc3c(CO)cc(=O)oc3c2)cc1)Cc1ccsc1`, in series [1], the Papp at 2 h, 20 µM came out at 8 ×10⁻⁶ cm/s. In addition, the CHI in series [2] is 95; in series [3], 50.7; in series [5] it was 90.3. Also, the microsomal CLint at 0.5 µM in series [4] came out at 61.2 µL/min/mg. Moreover, in series [6], the half-life at 0.5 µM came out at 22.7 min.
As to `CN(Cc1ccc(COc2ccc3c(CO)cc(=O)oc3c2)cc1)Cc1cccnc1`, the CHI in series [2] turned out to be 70.9; in series [3], 32.9; in series [5], 70.6.
The corresponding values for `CN(Cc1ccc(COc2ccc3c(CO)cc(=O)oc3c2)cc1)Cc1cncnc1` are 61.4, 35.9 and 62.6.
The corresponding values for `CN(Cc1ccccc1)Cc1ccc(COc2ccc3c(CO)cc(=O)oc3c2)cc1` are 102.1, 53 and 98.
